Entries after “also recorded” stand apart in the source; their conditions may differ.
Tests used:
[1] = test system: mouse lymphatic fibroblast (MLF) cells; assay: X-chromosome reactivation assay (single molecule RNA FISH of X-linked mRNA) in MLF cells having silenced X genes; format: cell-based; settings: for reactivation of silenced X-chromosome gene Gpc4 (Gpc4 mRNA) compared with Scriptaid alone: in combination with one of the DNMT1 inhibitors 5-aza, 5-aza-2'-dc, RG108 or SGI-1027, FIGS. 7A-7B
Protocol: Coverslips from siRNA transfection or inhibitor treatment were fixed in Histochoice (Sigma) for 10 min, washed thoroughly in PBS, and dehydrated in ethanol for storage until FISH staining. Single molecule RNA Fluorescence in situ hybridization (FISH) experiments were done using QuantiGene ViewRNA ISH Cell Assay (Affymetrix) and QuantiGene ViewRNA ISH Cell 740 Module (Affymetrix) according to manufacturer's protocol. Specifically, cells fixed on coverslips were first permeabilized with Detergent Solution QC at room temperature for 5 min, and then incubated with desired mixture of probe set (Affymetrix) in Probe Set Diluent QF at 40° C. for 3 h, followed by incubated with PreAmplifier Mix at 40° C. for 30 min, Amplifier Mix at 40° C. for 30 min, and Label Probe Mix at 40° C. for 30 min sequentially. For DAPI staining, coverslips were incubated in 30 nM DAPI in PBS at room temperature for 15-20 min. Probe sets and conjugated fluorophores (excitation wavelengths) for FISH were TYPE 4-GPC4, MECP2, SMC1A (488 nm), TYPE 10-ATRX (740 nm), and TYPE 6-EMD (650 nm). Cells were stained for target mRNAs (e.g., X-linked Gpc4 mRNA, X-linked MeCP2 mRNA, or as indicated) and siRNA-targeted mRNA by FISH and imaged. Images were then analyzed using Matlab R2013b (described below). In the case of siRNA targeting, cells were selected if the copy number of the targeted mRNA was less than 30% of the level of the no siRNA treated cells and if they induced Xist expression. Within these cells, the copy number of target mRNAs were quantified using a peak finding method (described below) and compared across conditions. The mRNA levels were quantified for 50 individual cells. All image analysis was carried out using Matlab (version R2013b) utilizing built-in functions from the Image Processing toolbox. […] Once regional maxima were identified, the number of spots was counted for each cell. The percentage of X-reactivation is calculated by normalizing the average number of spots of each condition to the average number of spots in untreated cells, and subtracting the value by 1.

[2] = test system: human iPS-derived neurons; assay: X chromosome reactivation (PGK1 and MeCP2 mRNA staining) in human iPS-derived neurons having a silenced X chromosome; format: cell-based; settings: simultaneous treatment with DNMT1 inhibitor 5-aza-2'-dc
Excerpt: FIG. 7K is a graph quantifying the expression level of MeCP2 mRNA in human iPSC-derived neurons having a silenced X chromosome after simultaneous treatment with the DNMT1 inhibitor (5-aza-2-dc) and the HDAC inhibitor SAHA for 7 days for a population of 50 cells, with the relative expression calculated by normalizing the neurons (two spots of active PGK1 loci) to non-reactivated (treated) neurons (one spot of active PGK1 locus), according to embodiments of the present invention.
(§1) Cells were stained for target mRNAs (e.g., X-linked Gpc4 mRNA, X-linked MeCP2 mRNA, or as indicated) and siRNA-targeted mRNA by FISH and imaged. Images were then analyzed using Matlab R2013b (described below). In the case of siRNA targeting, cells were selected if the copy number of the targeted mRNA was less than 30% of the level of the no siRNA treated cells and if they induced Xist expression. Within these cells, the copy number of target mRNAs were quantified using a peak finding method (described below) and compared across conditions. The mRNA levels were quantified for 50 individual cells.
The number of active X chromosomes was determined by RNA FISH with probes against the intronic region of Pgk1/PGK1 RNA using smFISH. […] Once regional maxima were identified, the number of spots was counted for each cell. […]

[3] = test system: mouse post-mitotic neurons; assay: X chromosome reactivation (active PGK1 loci, MeCP2 mRNA) in mouse post-mitotic neurons having a silenced X chromosome; format: cell-based; settings: simultaneous treatment with DNMT1 inhibitor 5-aza-2'-dc
Protocol: (§2) FIG. 7H is a graph of the percentage of reactivated cells (measured as the number of active phosphoglycerate kinase 1 (PGK1) loci for a population of 50 mouse post-mitotic neuronal cells having a silenced X chromosome after the simultaneous treatment of DMSO (as a control), the DNMT1 inhibitor (5-aza-2-dc) and the HDAC inhibitor SAHA or RGFP966 for 48 hours (h), 72 hours, and 7 days as indicated, with the number of active PGK1 loci greater than 2 shown in grey, the number of PGK1 loci equal to 2 shown in orange, and the number of PGK1 loci equal to 1 shown in blue, according to embodiments of the present invention.
FIG. 7I is a graph quantifying the expression level of MeCP2 mRNA in mouse post-mitotic neurons having a silenced X chromosome after simultaneous treatment with DMSO (control), the DNMT1 inhibitor (5-aza-2-dc) and the HDAC inhibitor SAHA or RGFP966 for 7 days for a population of 50 cells, with the relative expression calculated by normalizing reactivated female post-mitotic neurons to male post-mitotic neurons, according to embodiments of the present invention.
Cells were stained for target mRNAs (e.g., X-linked Gpc4 mRNA, X-linked MeCP2 mRNA, or as indicated) and siRNA-targeted mRNA by FISH and imaged. Images were then analyzed using Matlab R2013b (described below). […] The mRNA levels were quantified for 50 individual cells. […]

[4] = test system: human fibroblast cells; assay: X chromosome reactivation (active PGK1 loci, MeCP2 mRNA) in human fibroblast cells having a silenced X chromosome; format: cell-based; settings: for percentage of reactivated human fibroblasts (active PGK1 loci) with treatment time: simultaneous treatment with 5-aza-2'-dc, 48 h, 72 h, 7 days, FIG. 7F; for activation of the silenced X chromosome: simultaneous treatment with DNMT1 inhibitor 5-aza-2'-dc, human fibroblast cells
Protocol: as §2, with “7F” for “7H”, “human fibroblast” for “mouse post-mitotic neuronal”
FIG. 7G is a graph quantifying the expression level of MeCP2 mRNA (relative to control) of reactivated human fibroblast cells having a silenced X chromosome after simultaneous treatment with DMSO (control), the DNMT1 inhibitor (5-aza-2-dc) and the HDAC inhibitor SAHA or RGFP966 for 7 days for a population of 50 cells, according to embodiments of the present invention.
as §1
The number of active X chromosomes was determined by RNA FISH with probes against the intronic region of Pgk1/PGK1 RNA using smFISH. The spots were then identified using a 2D peak finding algorithm that identifies local maximal signals within the cell. Once regional maxima were identified, the number of spots was counted for each cell. Cells were selected in the G1 phase of the cell cycle by co-immunostaining the cells with Cyclin E antibodies (Abcam; ab33911 for mouse cells; ab32103 for human cells) and selecting Cyclin E positive cells.

[5] = test system: mouse lymphatic fibroblast (MLF) cells; settings: 1 uM, FIG. 7E
Protocol: With reference to FIG. 7E, MLF cells having a silenced X chromosome were assayed for reactivation of the Gpc4 gene after incubation with SAHA at 2 uM, RGFP966 at 3 uM, RG2833 (RGFP109) at 300 nM, PCI-24781 (Abexinostat) at 300 nM, CUDC-101 at 400 nM, Resminostat at 100 nM, Mocetinostat (MGCD0103) at 10 uM, HPOB (4-[(hydroxyamino)carbonyl]-N-(2-hydroxyethyl)-N-phenyl-benzeneacetamide) at 5 uM, Entinostat (MS0275) at 2 uM, Droxinostat at 20 uM, 4SC-202 at 2 uM, Trichostatin A (TSA) at 5 uM, Rocilinostat (ACY-1215) at 100 nM, Quisinostat (JNJ-26481585) at 100 nM, or Pracinostat (SB939) at 1 uM.
5,000 Mouse MLF cells were plated on a poly-D-lysine (Sigma) and 0.2% gelatin (Sigma)-coated #1.5 coverslip placed into wells of a 24-well plate containing HEK media (DMEM, 10% Gemini Benchmark FBS, 1×L-glutamine, 1× sodium pyruvate, 1×NEAA, lx Pen/Strep; Life Technologies unless otherwise indicated). After 16 hours, inhibitors were added into the media and incubated the cells for 48 hours. Unless, otherwise indicated, the inhibitors and the concentration used were: 5-Azacytidine (6 μM; Sigma, A2385), 5-Aza-2′-deoxycytidine (0.3 μM; Sigma, A3656), RG 108 (200 μM; Abcam, ab141013), Trichostatin A (5 μM; Sigma, T8552), and Scriptaid (100 nM; Sigma, S7817).

O=C(CCCCCN1C(=O)c2cccc3cccc(c23)C1=O)NO [Scriptaid]
reactivation of the Xist-dependent silent Gpc4 gene as measured by levels of Gpc4 mRNA ([1]; HDAC inhibitor alone, FIGS. 7A-7B): expression of Gpc4; also recorded: reactivation of the Xist-dependent silent Gpc4 gene | reactivation of silenced X-chromosome gene Gpc4 (Gpc4 mRNA) compared with Scriptaid alone [1]: reactivated to a higher level of reactivation

Nc1cc(F)ccc1NC(=O)/C=C/c1cnn(C/C=C/c2ccccc2)c1 [RGFP966]
activation of the silenced X chromosome [2]: activation of the X chromosome | activation of the silenced X chromosome [3]: activation of the X chromosome | percentage of reactivated human fibroblasts (active PGK1 loci) with treatment time [4]: increase in reactivation | activation of the silenced X chromosome [4]: activation (or re-activation) of the X chromosome

CC(/C=C/C(=O)NO)=C\[C@@H](C)C(=O)c1ccc(N(C)C)cc1 [Trichostatin A]
reactivation of silenced X-chromosome gene Gpc4 (Gpc4 mRNA) compared with Scriptaid alone [1]: reactivated to a higher level of reactivation

CCCCc1nc2cc(/C=C/C(=O)NO)ccc2n1CCN(CC)CC [Pracinostat]
cytotoxicity (cell death) [5]: cytotoxic, causing cell death

O=C(CCCCCCC(=O)Nc1ccccc1)NO [SAHA]
activation of the silenced X chromosome [2]: activation of the X chromosome | activation of the silenced X chromosome [3]: activation of the X chromosome | percentage of reactivated human fibroblasts (active PGK1 loci) with treatment time [4]: increase in reactivation | activation of the silenced X chromosome [4]: activation (or re-activation) of the X chromosome
